Measured values reported in article PMC6925493, “Casticin inhibits nasopharyngeal carcinoma growth by targeting phosphoinositide 3-kinase” (Cancer Cell International, 2019).

How the values were obtained:
[1] = test system: PI3K/AKT/mTOR signalling pathway; assay: Western blotting, PI3K/AKT/mTOR signalling in S18 and C666-1; assay type: cell-based
Excerpt: (§1) We used standard approaches and methods for Western blotting (WB) analyses. In brief, nasopharyngeal carcinoma cells were lysed on ice in Pierce RIPA buffer (Thermo Scientific) containing a Halt protease inhibitor cocktail (Sigma-Aldrich) and phosphatase inhibitors (Keygen Biotech). We measured protein concentration using a Beyotime protein assay protocol following the manufacturer’s instructions. Proteins were separated by using sodium dodecyl sulfate polyacrylamide gel electrophoresis and were then transferred to polyvinylidene difluoride membranes (0.45 µm; Millipore). […] The total S6, AKT, and mTOR antibodies were used on the same blots as the respective phosphorylated proteins after stripping (stripping buffer, CWBIO, China). All primary antibodies were diluted in Tris-buffered saline containing Tween 20 and 5% bovine serum albumin (BSA), and a peroxidase conjugate (Bioworld) was used as the secondary antibody. Anti-β-actin (20536-I, Proteintech) was used as a loading control. Immuno-reactive bands were visualized using an enhanced chemo-luminescence kit (Thermo Fisher Scientific), and images were captured using a ChemiDoc™ XRS molecular imager (Bio-Rad). Densitometry of band intensity was performed using ImageJ software.

[2] = test system: phosphorylation of S6, AKT and mTOR; assay: Western blotting, PI3K signalling after BYL719 in sensitive and resistant cell lines; assay type: cell-based; conditions: sensitive cells (HONE1, CNE1) compared to resistant cells (S18, C666-1, HONE-EBV+)
Excerpt: as §1, with “All primary antibodies were diluted in Tris-buffered saline containing Tween 20 and 5% bovine serum albumin (BSA), and a peroxidase conjugate (Bioworld) was used as the secondary antibody. Anti-β-actin (20536-I, Proteintech) was used as a loading control.” left out, “Densitometry of band intensity was performed using ImageJ software.” left out
To identify BYL719-insensitive NPC cell lines, the response of 12 NPC cell lines to BYL719 was screened by viability assay (Fig. 5a). […] Both sensitive cell lines increased S-phase arrest and apoptosis rates (as measured by AV staining) compared with the those in the BYL719-insensitive cell lines (Fig. 5b, c). […]

[3] = test system: p110α; set-up: method as in PMID 23903756; conditions: 1 μM; cited from earlier work
[4] = test system: HONE1 and CNE1; assay: Viability assay, response to BYL719; assay type: cell-based; conditions: 1 µM BYL719, 72 h
Method: (§2) The effects of casticin on the growth of the 12 cell lines were determined using the Cell Counting Kit-8 (CCK-8) assay (Dojindo, Japan). Briefly, cells were plated in 96-well plates at 4 × 10^3 cells/well in 100 μL and were treated with a gradient of casticin concentrations (0, 1, 2, 4, 8 µM). After incubation for 24, 48, or 72 h, 10 μL of the CCK-8 reagent was added into each well, and the plate was incubated for an additional 1 or 2 h. Next, a microplate reader (Bio-Rad, model 550) was used to detect absorbance at 490 nm in each well. We repeated the experiments three times. Cell viability was calculated using the following formula: […].
To identify BYL719-insensitive NPC cell lines, the response of 12 NPC cell lines to BYL719 was screened by viability assay (Fig. 5a). […] Only two NPC cell lines, HONE1 and CNE1, were sensitive to 1 µM BYL719 after 72 h (Fig. 5a). Both sensitive cell lines increased S-phase arrest and apoptosis rates (as measured by AV staining) compared with the those in the BYL719-insensitive cell lines (Fig. 5b, c). We studied PI3K signalling in three resistant (S18, C666-1 and HONE-EBV+) (Fig. 5d) and two sensitive cell lines (HONE1 and CNE1) after treatment with a gradient of BYL719 concentrations (Fig. 5e). […]

[5] = test system: NPC cell lines; assay: CCK-8 cell viability assay, NPC cell lines; assay type: cell-based
Method: as §2

[6] = test system: Nanog, sox2, and Oct4; assay: Western blotting, stem cell markers; assay type: cell-based; conditions: C666-1; 0, 4, 8, 16 µM; 24 h; dose-dependent
Excerpt: as §1

[7] = test system: S18, CNE2, C666-1 tumour spheres; assay: 3D tumour sphere formation assay; assay type: cell-based; conditions: 20 µM casticin for 72 h; vs untreated spheres
Method: S18, CNE2, and C666-1 cells (2 × 10^4 each) were cellected, counted and seeded into a cell culture flask with a novel 3D tumour sphere culture system. The 3D tumour sphere culture system with NPC cells was cultured at 37 °C in a humid atmosphere with 5% CO2, the diameters of tumour spheroids were measured when the tumour sphere diameter was ≥ […] [15] and then incubated with 20 µM casticin for 72 h, the original medium was discarded, the cells were cultured for approximately 1 week, and the tumour spheres that were ≥ 100 µm in diameter were counted under a bright field microscope.

[8] = test system: S18 cells; assay: Transwell migration assay; assay type: cell-based; conditions: concentration-dependent
[9] = test system: S18 cells; assay: Annexin V/PI staining assay; assay type: cell-based; conditions: 48 h
Method: For the apoptosis test, S18 and C666-1 cells were treated with casticin at concentrations of 0, 1, 2, and 4 µM and of 0, 2, 4, and 8 µM for 48 h. Next, cells were collected and washed once with PBS. After centrifugation (1500 rpm, 5 min), cells were resuspended in 1× annexin V (AV) binding buffer and incubated with 5 µL of AV and PI at 37 °C for 30 min. Cell apoptosis was evaluated by using flow cytometry (FACSCalibur).

[10] = test system: S18 cells; assay: Cell cycle analysis by flow cytometry, S18; assay type: cell-based; conditions: 8 µM casticin for 24 h
Method: (§3) S18 and C666-1 cells were treated with 0, 2, 4, and 8 µM casticin for 24 h. The cells were then collected, washed with phosphate-buffered saline (PBS), and fixed with 75% ethanol overnight. Subsequently, the cells were centrifuged (1500 rpm, 5 min) and incubated with 10 mg/mL RNase and 1 mg/mL propidium iodide (PI) at 37 °C for 30 min in the dark. Finally, we analysed cell cycle distribution by using flow cytometry (FACSCalibur; BD Biosciences, Bedford, MA, USA).

[11] = test system: S18 and C666-1 cells; assay: Wound-healing assay; assay type: cell-based; conditions: vs cells not treated
Method: We seeded S18 and C666-1 cells in 6-well plates at 80% to 90% confluence. After a 24-h incubation period, cells were wounded by using a 0.2-mL pipette tip to scratch the subconfluent cell monolayer. Then, we removed the detached cells by washing with PBS just before casticin 16 µM was added to each well of the plate. Cells were maintained in serum-free medium and allowed to migrate for 24 h. An inverted microscope was used to capture cell migration images after 24 h. The speed of migration was determined by dividing the length of the gap and the wound areas in the resultant images.

[12] = test system: BCL-2, BAX, p21; assay: Western blotting, cell cycle and apoptosis related proteins; assay type: cell-based
Excerpt: as §1

[13] = test system: normal nasopharyngeal mucosal epithelial cell line NP69; assay: CCK-8 cell viability assay, NP69; assay type: cell-based; conditions: NP69 cells
Method: as §2

[14] = test system: C666-1 cells; assay: C666-1 xenograft mouse model; assay type: in vivo, nude mice; conditions: 40 mg/kg daily i.p.
Method: (§4) Generation and characterization of the xenograft mouse model were conducted in accordance with the guidelines of the Ministry of Science and Technology of China and were approved by the Animal Ethics Committee of Southern Medical University. All efforts were made to minimize animal suffering during the experiments. Five-week-old nude mice were obtained from the Guangdong Experimental Animal Ccenter. To assess the tumour growth, 5 × 10^6 S18 cells and 1 × 10^7 C666-1 cells were injected subcutaneously into the left or right side of the back of each mouse (three mice per group). When tumours reached approximately 100 mm^3, the mice were randomized to the control and casticin treatment groups. Casticin was diluted in 10% DMSO in normal saline (NS) and injected intraperitoneally at 40 mg/kg daily, while the control group received only NS vehicle. Tumour sizes were measured with a caliper and recorded every 3 days. Tumour volume was calculated as follows: tumour volume = (length × width^2) × 0.5. Body weight was recorded every 2–3 days during the treatment, and the tumour weight was measured at the end of the experiment.

[15] = test system: C666-1 cells; assay: Cell cycle analysis by flow cytometry, C666-1; assay type: cell-based; conditions: 8 µM casticin for 24 h
Method: as §3

[16] = test system: S18 cells; assay: S18 xenograft mouse model; assay type: in vivo, nude mice
Method: as §4

[17] = test system: panel of 468 kinases; assay: KINOMEscan selectivity profiling; assay type: binding, human; conditions: 10 μM
Method: (§5) Selectivity profiling of casticin against a selected panel of 468 kinases distributed throughout the kinome was performed by DiscoverRx (http://www.discoverx.com/home) using the KINOMEscan screening platform at a test concentration of 10 μM. Since KINOMEscan is a binding assay and may not reflect the inhibitory activity of a compound, the binding constant (Kd) of casticin was calculated from a standard dose–response curve using the Hill equation: Response = Background + (Signal − Background)/[1 + (Kd^Hill Slope/Dose^Hill Slope)]. We then tested casticin in the SelectScreen assay (Invitrogen, USA) to calculate the IC50 of casticin that directly targeted the active site of ATP in PI3K kinase.

[18] = test system: S18 cells; assay: Colony formation assay; assay type: cell-based
Method: S18 and C666-1 cells were incubated in 6-well plates with either 0, 1, 2, and 4 µM casticin for 12 h with 1 µM casticin for 0, 6, 12, and 24 h. There after, 500 cells were seeded in each well of a 6-well plate and cultured without casticin for 8–10 days. Subsequently, the cells were fixed with methanol and stained with haematoxylin. After washing and drying, colonies with more than 50 cells were counted under a microscope (Leica, Wetzlar, Germany).

[19] = target: T1, PIK3CA/PIK3R3 (p110a/p55 gamma) (Homo sapiens, UniProt P42336); assay: SelectScreen biochemical kinase activity assay
T1 construct: purchased Invitrogen (SelectScreen service)
Method: as §5

[20] = target: T2, PIK3CA E542K/PIK3R1 (p110 alpha/p85 alpha) (Homo sapiens, UniProt P42336, E542K); assay: SelectScreen biochemical kinase activity assay
T2 construct: purchased Invitrogen (SelectScreen service)
Method: as §5

[21] = target: T3, PIK3CA E545K/PIK3R1 (p110 alpha E545K/p85 alpha) (Homo sapiens, UniProt P42336, E545K); assay: SelectScreen biochemical kinase activity assay
T3 construct: purchased Invitrogen (SelectScreen service)
Method: as §5

[22] = target: T4, PIK3CA ( p110 alpha/p85 alpha ) (Homo sapiens, UniProt P42336); assay: SelectScreen biochemical kinase activity assay
T4 construct: purchased Invitrogen (SelectScreen service)
Method: as §5

[23] = test system: PI3K family, including wild-type and mutant kinases; assay: KINOMEscan binding to PI3K family; set-up: species or system human; conditions: 10 μM
Method: as §5

[24] = 40 mg/kg daily i.p., vs NS group
[25] = read-out: Inhibited kinase activity(%) at 1μM of Casticin

T2 sequence (P42336 whole entry E542K): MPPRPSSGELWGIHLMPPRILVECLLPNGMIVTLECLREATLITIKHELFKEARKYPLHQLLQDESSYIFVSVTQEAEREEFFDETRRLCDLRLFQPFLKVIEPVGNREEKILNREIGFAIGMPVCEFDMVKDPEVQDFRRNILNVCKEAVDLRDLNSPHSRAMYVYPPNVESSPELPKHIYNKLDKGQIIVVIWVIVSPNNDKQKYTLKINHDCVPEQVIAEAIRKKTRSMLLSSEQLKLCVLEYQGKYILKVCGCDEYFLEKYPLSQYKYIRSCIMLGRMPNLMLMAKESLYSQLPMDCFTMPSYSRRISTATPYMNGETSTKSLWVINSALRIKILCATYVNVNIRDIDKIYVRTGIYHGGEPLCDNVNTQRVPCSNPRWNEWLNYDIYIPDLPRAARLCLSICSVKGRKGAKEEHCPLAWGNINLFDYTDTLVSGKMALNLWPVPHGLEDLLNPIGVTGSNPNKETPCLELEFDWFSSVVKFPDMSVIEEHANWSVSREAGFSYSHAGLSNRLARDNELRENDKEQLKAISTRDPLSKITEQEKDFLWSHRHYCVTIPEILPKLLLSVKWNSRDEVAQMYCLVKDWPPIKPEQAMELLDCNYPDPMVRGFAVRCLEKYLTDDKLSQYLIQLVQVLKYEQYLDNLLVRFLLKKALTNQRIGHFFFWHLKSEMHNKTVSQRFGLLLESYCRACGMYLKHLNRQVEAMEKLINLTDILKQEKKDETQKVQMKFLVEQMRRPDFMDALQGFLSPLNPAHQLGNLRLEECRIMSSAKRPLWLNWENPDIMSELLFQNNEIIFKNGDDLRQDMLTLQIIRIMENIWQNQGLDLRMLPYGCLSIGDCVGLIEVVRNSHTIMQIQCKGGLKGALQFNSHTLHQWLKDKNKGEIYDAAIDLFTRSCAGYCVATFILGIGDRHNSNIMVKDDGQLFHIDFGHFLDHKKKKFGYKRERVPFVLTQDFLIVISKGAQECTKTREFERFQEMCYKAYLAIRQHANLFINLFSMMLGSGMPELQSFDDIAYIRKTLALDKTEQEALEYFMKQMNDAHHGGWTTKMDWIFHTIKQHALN
T2 sequence (P27986 whole entry partner): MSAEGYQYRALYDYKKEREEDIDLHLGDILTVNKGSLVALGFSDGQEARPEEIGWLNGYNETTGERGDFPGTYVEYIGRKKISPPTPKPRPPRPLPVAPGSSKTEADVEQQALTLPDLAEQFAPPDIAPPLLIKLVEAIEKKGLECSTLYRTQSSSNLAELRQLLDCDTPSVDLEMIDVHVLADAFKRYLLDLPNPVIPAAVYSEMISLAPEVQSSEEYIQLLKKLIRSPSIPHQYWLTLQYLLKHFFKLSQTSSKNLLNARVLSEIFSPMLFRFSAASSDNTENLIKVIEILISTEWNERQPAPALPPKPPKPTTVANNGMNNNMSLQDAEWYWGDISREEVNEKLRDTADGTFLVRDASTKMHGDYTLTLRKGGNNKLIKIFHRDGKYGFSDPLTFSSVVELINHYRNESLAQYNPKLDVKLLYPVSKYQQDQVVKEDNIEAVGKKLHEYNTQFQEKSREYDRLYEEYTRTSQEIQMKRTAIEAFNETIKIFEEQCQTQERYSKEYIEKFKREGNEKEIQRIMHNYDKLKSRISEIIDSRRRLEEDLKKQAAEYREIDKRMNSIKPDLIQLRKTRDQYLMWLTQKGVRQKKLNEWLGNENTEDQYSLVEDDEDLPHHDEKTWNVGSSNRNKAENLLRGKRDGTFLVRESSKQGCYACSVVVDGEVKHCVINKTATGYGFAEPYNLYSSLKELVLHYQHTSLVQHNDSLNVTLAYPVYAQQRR
T3 sequence (P42336 whole entry E545K): as the sequence (P42336 whole entry E542K) above, with K542E, E545K counted along it
T3 sequence (P27986 whole entry partner): as the sequence (P27986 whole entry partner) above
T4 sequence (P42336 whole entry): as the sequence (P42336 whole entry E542K) above, with K542E counted along it
T4 sequence (P27986 whole entry partner): as the sequence (P27986 whole entry partner) above
T1 sequence (P42336 whole entry): as the sequence (P42336 whole entry E542K) above, with K542E counted along it

## Cc1nc(NC(=O)N2CCC[C@H]2C(N)=O)sc1-c1ccnc(C(C)(C)C(F)(F)F)c1 [BYL719]
[1]; BYL719 1 µM alone, 12 h
  phosphorylation of ATK (Ser473 and Thr308) or mTORC1: did not reduce
[2]
  phosphorylation of S6, AKT and mTOR: significantly reduced
[3]
  block of p110 subunits: blocked p110α without affecting the other p110 subunits
[4]
  sensitivity class by viability (IC50 cut-off 1 μM): sensitive

## COc1ccc(-c2oc3cc(OC)c(OC)c(O)c3c(=O)c2OC)cc1O [casticin, 3′,5-dihydroxy-3,4′,6,7-tetramethoxyflavone]
[5]; 12 NPC cell lines, 24 h
  IC50 on viability compared with BYL719: lower than that of BYL719
[5]; eleven NPC cell lines, gradient of concentrations, 24, 48, 72 h, concentration-dependent
  cell viability: decreased
[6]
  expression of tumour stemness markers Nanog, sox2, Oct4: reduced expression
[7]
  tumour sphere growth: significant reduction in tumour growth
[8]
  number of migrating cells: significantly reduced
[9]; 1 μM
  early and late apoptosis: significantly increased
[9]; 4 μM
  apoptotic frequency: approximately 75%
[10]
  percentage of cells in the G2/M phase: 62.90 ± 1.97%
[1]; 24 h, increasing casticin concentrations, dose-dependent
  phosphorylation of AKT (T308, S473) and mTOR (Ser2481, Ser2448): significant reduction
[11]
  gap-closing speeds: significantly decreased
[12]; S18 and C666-1, 24 h
  p21 expression: increased
[12]; casticin-treated S18 and C666-1 cells
  BCL-2/BAX ratio: significantly decreased in a dose-dependent manner
[13]
  effect on cell growth compared to BYL719: less effective
[13]; gradient of concentrations, 24, 48, 72 h
  cell viability: resistant
[14]
  tumour growth and liver/kidney histology in C666-1 in vivo model: findings similar to those with the S18 model
[15]
  percentage of cells in the G2/M phase: 62.54 ± 4.91%
[16]; 40 mg/kg daily i.p.
  damage to the liver or kidney (haematoxylin and eosin histopathology): without any obvious subsequent damage to the liver or kidney
[16]; 40 mg/kg daily i.p. for 12 days, 18 days after implantation
  tumour size: smaller than those in the control group
[16]; [24]
  tumour growth rate (tumour volume): lower than NS group
  tumour weight: lighter than NS group
[16]; S18 model, 40 mg/kg daily i.p.
  ratios of liver and kidney weight to body weight: not statistically significant between groups
[17]
  S score (1): 0.01
[17]; KINOMEscan
  binding to other kinases: did not demonstrate strong binding
[18]; 1 µM casticin, vs control group
  clonogenic ability: diminished as early as 6 h
[18]; S18 cells, 0, 1, 2, 4 µM for 12 h
  clonogenic activity: significant reduction
[19]
  IC50: 574 nM
[19]; [25]
  inhibition at 1 µM: 46%
[20]
  IC50: 306 nM
[20]; [25]
  inhibition at 1 µM: 57%
[21]
  IC50: 544 nM
[21]; [25]
  inhibition at 1 µM: 54%
[22]; PI3K (p110α/p85α)
  IC50: 616 nM
[22]; [25]
  inhibition at 1 µM: 56%
[23]
  percent control number: less than 1
